Assay results from ChEMBL document CHEMBL1177797, “Discovery of 3,9-diazabicyclo[4.2.1]nonanes as potent dual orexin receptor antagonists with sleep-promoting activity in the rat” (Bioorg Med Chem Lett, 2010).
Calls of active or inactive are those of the source. No cut-off for these calls is given here.

Legend:
Rattus norvegicus [1] = test: AUC (0 to 24 hrs) in Sprague-Dawley rat at 10 mg/kg, po and 2 mg/kg, iv; format: ADME, organism-based, Plasma; details: in vivo
Canis familiaris = test: AUC (0 to 24 hrs) in dog at 3 mg/kg, po and 0.125 mg/kg, iv; format: ADME, organism-based, Canis lupus familiaris, Plasma; details: in vivo
[2] = Clearance in dog at 3 mg/kg, po and 0.125 mg/kg, iv; format: ADME, organism-based, Canis lupus familiaris; details: in vivo
[3] = target: T1, Orexin/Hypocretin receptor type 1 (Homo sapiens, UniProt O43613); test: Antagonist activity at OX1R by FLIPR assay; format: functional
T1 sequence (O43613 whole entry): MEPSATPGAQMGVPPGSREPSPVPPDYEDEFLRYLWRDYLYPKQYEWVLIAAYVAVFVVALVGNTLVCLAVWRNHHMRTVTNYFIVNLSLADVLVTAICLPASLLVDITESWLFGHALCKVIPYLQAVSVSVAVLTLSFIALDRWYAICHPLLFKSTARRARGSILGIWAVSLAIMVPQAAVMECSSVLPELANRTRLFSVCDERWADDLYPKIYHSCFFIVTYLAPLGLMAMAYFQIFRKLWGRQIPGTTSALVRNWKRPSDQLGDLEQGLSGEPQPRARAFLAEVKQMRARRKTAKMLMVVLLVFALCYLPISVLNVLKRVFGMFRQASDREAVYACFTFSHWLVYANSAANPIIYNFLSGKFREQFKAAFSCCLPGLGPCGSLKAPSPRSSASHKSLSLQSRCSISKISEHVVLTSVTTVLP

[4] = target: T1, Orexin/Hypocretin receptor type 1; test: Binding affinity to OX1R
Orexin receptor type 2 [5] = target: T2, Orexin receptor type 2 (Homo sapiens, UniProt O43614); test: Binding affinity to OX2R
T2 sequence (O43614 whole entry): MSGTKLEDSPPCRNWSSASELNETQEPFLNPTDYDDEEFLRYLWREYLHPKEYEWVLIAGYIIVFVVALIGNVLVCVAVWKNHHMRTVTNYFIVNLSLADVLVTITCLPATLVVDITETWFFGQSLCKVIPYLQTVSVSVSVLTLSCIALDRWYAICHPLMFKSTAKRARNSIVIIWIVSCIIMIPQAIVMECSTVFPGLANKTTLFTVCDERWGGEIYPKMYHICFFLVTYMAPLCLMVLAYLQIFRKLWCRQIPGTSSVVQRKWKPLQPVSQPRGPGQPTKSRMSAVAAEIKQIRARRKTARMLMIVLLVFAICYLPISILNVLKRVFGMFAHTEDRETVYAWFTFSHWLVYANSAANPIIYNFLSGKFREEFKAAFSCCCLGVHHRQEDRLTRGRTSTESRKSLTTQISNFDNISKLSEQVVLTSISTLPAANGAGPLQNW

Orexin receptor type 2 [6] = target: T2, Orexin receptor type 2; test: Antagonist activity at OX2R by FLIPR assay; format: functional
[7] = Oral bioavailability in dog at 3 mg/kg; format: ADME, organism-based, Canis lupus familiaris; details: in vivo
[8] = Drug level in Sprague-Dawley rat CSF at 10 mg/kg after 2 hrs; format: ADME, organism-based, Cerebrospinal fluid; set-up: dose 10 mg/kg; details: read-out: Drug uptake
[9] = Ratio of drug level in CSF to plasma in Sprague-Dawley rat at 10 mg/kg after 2 hrs; format: ADME, organism-based; set-up: dose 10 mg/kg
[10] = Drug level in Sprague-Dawley rat plasma at 60 mg/kg after 1 hr; format: ADME, organism-based; set-up: dose 60 mg/kg; details: read-out: Drug uptake
[11] = Cmax in Sprague-Dawley rat at 10 mg/kg, po and 2 mg/kg, iv; format: ADME, organism-based; details: in vivo
[12] = Ratio of drug level in CSF to plasma in Sprague-Dawley rat at 30 mg/kg after 2 hrs; format: ADME, organism-based; set-up: dose 30 mg/kg
[13] = Half life in dog at 3 mg/kg, po and 0.125 mg/kg, iv; format: ADME, organism-based, Canis lupus familiaris; details: in vivo
[14] = Drug level in Sprague-Dawley rat plasma at 30 mg/kg after 2 hrs; format: ADME, organism-based; set-up: dose 30 mg/kg; details: read-out: Drug uptake
[15] = Clearance in Sprague-Dawley rat at 10 mg/kg, po and 2 mg/kg, iv; format: ADME, organism-based; details: in vivo
[16] = Half life in Sprague-Dawley rat at 10 mg/kg, po and 2 mg/kg, iv; format: ADME, organism-based; details: in vivo
[17] = Drug level in Sprague-Dawley rat CSF at 60 mg/kg after 1 hr; format: ADME, organism-based, Cerebrospinal fluid; set-up: dose 60 mg/kg; details: read-out: Drug uptake
[18] = Drug level in Sprague-Dawley rat plasma at 10 mg/kg after 2 hrs; format: ADME, organism-based; set-up: dose 10 mg/kg; details: read-out: Drug uptake
[19] = Cmax in dog at 3 mg/kg, po and 0.125 mg/kg, iv; format: ADME, organism-based, Canis lupus familiaris; details: in vivo
[20] = Ratio of drug level in CSF to plasma in Sprague-Dawley rat at 60 mg/kg after 1 hr; format: ADME, organism-based; set-up: dose 60 mg/kg
[21] = Drug level in Sprague-Dawley rat CSF at 30 mg/kg after 2 hrs; format: ADME, organism-based, Cerebrospinal fluid; set-up: dose 30 mg/kg; details: read-out: Drug uptake
[22] = Oral bioavailability in Sprague-Dawley rat at 10 mg/kg; format: ADME, organism-based; details: in vivo
[23] = Drug level in Sprague-Dawley rat plasma at 100 mg/kg after 2 hrs administered in PEG400; format: ADME, organism-based; set-up: dose 100 mg/kg; details: read-out: Drug uptake
Rattus norvegicus [24] = test: Effect on sleep-awake pattern in rat assessed as decrease in wakefulness at 60 mg/kg/day, po; format: functional, organism-based
Rattus norvegicus [25] = test: Effect on sleep-awake pattern in rat assessed as increase in […] at 60 mg/kg/day, po; format: functional, organism-based
Rattus norvegicus [26] = test: Effect on sleep-awake pattern in rat assessed as increase in REM sleep at 60 mg/kg/day, po; format: functional, organism-based

| Compound | IC50 [3] | Ki [4] | Ki (Orexin receptor type 2 [5]) | IC50 (Orexin receptor type 2 [6]) | further results |
| --- | --- | --- | --- | --- | --- |
| Cc1ccc(-n2nccn2)c(C(=O)N2CCCN(c3ncc4ccccc4n3)CC2)c1 | – | – | – | – | AUC (Rattus norvegicus [1]): 0.19 µM·h; AUC (Canis familiaris): 0.44 µM·h; clearance [2]: 12 mL/min/kg |
| Cc1ccc(-n2nccn2)c(C(=O)N2C[C@@H]3CC[C@H]2CCN3c2ncc3ccc(F)cc3n2)c1 | 800 nM | 7.6 nM | 14 nM | 740 nM | – |
| Cc1ccc(-n2nccn2)c(C(=O)N2CC[C@@H]3CC[C@H]2CN3c2ncc3ccc(F)cc3n2)c1 | 2300 nM | 160 nM | 105 nM | 1450 nM | – |
| Cc1ccc(-n2nccn2)c(C(=O)N2C[C@H]3CC[C@@H]2CN(c2ncc4ccc(F)cc4n2)C3)c1 (single isomer, unassigned) | 104 nM | 10 nM | 2.9 nM | 370 nM | – |
| Cc1ccc(-n2nccn2)c(C(=O)N2C3CCC2CN(c2ncc4ccc(F)cc4n2)CC3)c1 (single isomer, unassigned; 8a) [listing 1 of 2 here] | 98 nM | 0.6 nM | 0.4 nM | 136 nM | bioavailability [7]: 100%; AUC (Rattus norvegicus [1]): 1.57 µM·h; concentration at 2 h [8]: 3 nM; Kp at 2 h [9]: 0.004; AUC (Canis familiaris): 14.1 µM·h; concentration at 1 h [10]: 14.6 µM; Cmax [11]: 570 nM; Kp at 2 h [12]: 0.007; half-life [13]: 108 min; concentration at 2 h [14]: 3.1 µM; clearance [15]: 23 mL/min/kg; half-life [16]: 60 min; concentration at 1 h [17]: 170 nM; concentration at 2 h [18]: 1100 nM; Cmax [19]: 3.4 µM; Kp at 1 h [20]: 0.011; concentration at 2 h [21]: 23 nM; clearance [2]: 3.6 mL/min/kg; bioavailability [22]: 14%; concentration at 2 h [23]: 12.5 µM |
| Cc1ccc(-n2nccn2)c(C(=O)N2C[C@@H]3CC[C@H]2CN(c2ncc4ccc(F)cc4n2)C3)c1 (single isomer, unassigned) | 46 nM | 2 nM | 62 nM | 790 nM | – |
| Cc1ccc(-n2nccn2)c(C(=O)N2C3CCC2CN(c2ncc4ccc(F)cc4n2)CC3)c1 (single isomer, unassigned; 8a) [listing 2 of 2 here] | – | – | – | – | Activity (Rattus norvegicus [24]): Active; Activity (Rattus norvegicus [25]): Active; Activity (Rattus norvegicus [26]): Active |
| Cc1ccc(-n2nccn2)c(C(=O)N2C3CCC2CN(c2ncc4ccc(F)cc4n2)CC3)c1 (single isomer, unassigned; 8b) | 99 nM | 3.7 nM | 6.7 nM | 150 nM | – |
| Cc1ccc(-n2nccn2)c(C(=O)N2CC[C@H]3CC[C@@H]2CN3c2ncc3ccc(F)cc3n2)c1 | 1600 nM | 345 nM | 590 nM | > 10000 nM | – |
| Cc1ccc(-n2nccn2)c(C(=O)N2CCC3CCC(C2)N3c2ncc3ccc(F)cc3n2)c1 (racemic) | 72 nM | 0.9 nM | 0.8 nM | 175 nM | – |
| Cc1ccc(-n2nccn2)c(C(=O)N2C[C@H]3CC[C@@H]2CCN3c2ncc3ccc(F)cc3n2)c1 | 125 nM | 0.6 nM | 2.2 nM | 140 nM | – |
| O=C(c1cc(Cl)ccc1-n1nccn1)N1C[C@@H]2C[C@H](C1)N(c1ncc3cc(F)ccc3n1)C2 | – | 0.4 nM | 0.6 nM | – | – |
